Series [1] relates to EUFA30 cells (non-cancerous human fibroblasts). The series can be described thus: Alamar Blue cytotoxicity assay, EUFA30. The format is cell-based. The settings on record: Fibroblast, 300 µM, bracketed values, read-out: proliferation inhibition expressed as a percentage at highest concentration used. How it is done:
(§1) HeLa, U87, BICR18, EUFA30 cell lines were cultured in DMEM medium (Life Technology) supplemented with 10% fetal bovine serum (Life Technology) and 0.1% antibiotics, penicillin and streptomycin (Life Technology). Cells were grown in a humidified atmosphere of CO2/air (5/95%) at 37 °C.
(§2) Exponentially growing cells were seeded onto a 96-well plate at the density of 2 × 10^3 cells/well, cultured for 18 h, and treated with newly synthesized derivatives at concentrations 1–300 µM, or with DMSO as a control, for 24 or 48 h. Alamar Blue (Invitrogen) was added accordingly to manufacturer protocol. After 4 h, light emission at 590 nm was measured with excitation at 560 nm using a scanning multiwell spectrophotometer (DTX 880, Beckman Coulter). The experiments were carried out at least three times with three replicates for each inhibitor concentration. After background subtraction, inhibition rate, IC50 was calculated as the concentration of the component inhibiting cell growth by 50%. All the calculations were performed using Origin 9.0 software.
(In general: Resazurin is reduced to fluorescent resorufin, in cell work by metabolically active cells.)

For series [2], the system named is HeLa cells (cervix adenocarcinoma). Kind of series: Alamar Blue cytotoxicity assay, HeLa. The conditions noted are these: Homo sapiens, 300 µM, bracketed values, read-out: proliferation inhibition expressed as a percentage at highest concentration used. Type of series: cell-based. How it is done:
as §1, §2

Series [3] deals with BICR18 cells (laryngeal squamous cell carcinoma). Kind of series: Alamar Blue cytotoxicity assay, BICR18. The format is cell-based. The settings on record: 300 µM, bracketed values, read-out: proliferation inhibition expressed as a percentage at highest concentration used. As to the method:
as §1, §2

Series [4] concerns U87 cells (human primary glioblastoma). Kind of series: Alamar Blue cytotoxicity assay, U87. Type of series: cell-based. The settings on record: U-87 MG, 300 µM, bracketed values, read-out: proliferation inhibition expressed as a percentage at highest concentration used. As to the method: as §1, §2
Series [5] deals with EUFA30, HeLa, BICR18, U87 cells. Kind of series: Alamar Blue cytotoxicity assay, statements over all tested cell lines. Type of series: cell-based. The settings on record: Homo sapiens, concentrations 1-300 µM, group range = lowest to highest value, read-out: IC50 across the tested cell lines. As to the method:
as §1, §2

A further series concerns EUFA30 cells. Kind of series: Annexin V-FITC / propidium iodide flow cytometry, EUFA30. The format is cell-based, human. The settings on record: EUFA30, positive control, 10 μM, 24 h. How it is done: as §1
(§3) The Annexin V-FITC apoptosis detection kit (BD Biosciences) was used to detect apoptosis by flow cytometry. Cells were seeded at Petri dishes, cultured for 18 h with tested agents applied for 24 h. DMSO was added as the non-treated control and camptothecin (CPT) as the positive control. Subsequently, cells were washed with PBS, resuspended in binding buffer at a concentration of 2 × 10^6 cells/mL, and anti-Annexin V FITC-conjugated antibody and propidium iodide were added to 100 µL aliquots. The mixtures were incubated for 15 min at room temperature, supplemented with binding buffer to 500 µL and processed by BD FACSCalibur (BD Biosciences). Data were analyzed in Flowing Software version 2.5.1 (Flowing Software, http://www.uskonaskel.fi/flowingsoftware).
(In general: Flow cytometry measures light scatter and fluorescence of single cells or particles in a stream.)

For another series, the system named is HeLa cells. Kind of series: Annexin V-FITC / propidium iodide flow cytometry, HeLa. The conditions noted are these: positive control, 10 μM, 24 h. Type of series: cell-based. As to the method:
as §1, §3

These results are taken from article PMC7356613, “Unsymmetrically-Substituted 5,12-dihydrodibenzo[b,f][1,4]diazocine-6,11-dione Scaffold—A Useful Tool for Bioactive Molecules Design” (Molecules, 2020).

Where two headings read alike, the source gives them in different places.

As a reminder, the melting point is the temperature of the solid-liquid transition. `CCOC(=O)c1cc2c(cc1C(=O)OCC)C(=O)Nc1ccccc1NC2=O` [Compound 3k, diethyl 6,11-dioxo-5,6,11,12-tetrahydrodibenzo[b,f][1,4]diazocine-8,9-dicarboxylate] returned a melting point of 242 to 243 °C. In series [1] (EUFA30, 24 h), the inhibition at 300 µM is 36.7%. Moreover, the inhibition at 300 µM in series [2] (24 h) was determined as 28.2%. Also, in series [3] (BICR18, 24 h), the inhibition at 300 µM was 16.8%. In addition, the inhibition at 300 µM in series [3] (BICR18, 48 h) was found to be 5.6%. In addition, the inhibition at 300 µM in series [4] (U87, 24 h) stood at 37.2%. In addition, the inhibition at 300 µM in series [4] (U87, 48 h) is 3.1%.

In the case of `CN(C)CCN1C(=O)c2ccccc2C(=O)N(Cc2ccccc2)c2ccccc21` [Compound 3m, 5-benzyl-12-(2-(dimethylamino)ethyl)-5,12-dihydrodibenzo[b,f][1,4]diazocine-6,11-dione], the melting point was in the range of 154 to 155 °C. The inhibition at 300 µM in series [1] (EUFA30, 24 h) is 42.2%. For the same molecule, the inhibition at 300 µM in series [1] (EUFA30, 48 h) stood at 9.9%. For the same molecule, the inhibition at 300 µM in series [2] (24 h) came to 23.4%. In series [3] (BICR18, 24 h), the inhibition at 300 µM was 30.1%. For the same molecule, in series [3] (BICR18, 48 h), the inhibition at 300 µM is 4.7%. Besides, the inhibition at 300 µM in series [4] (U87, 24 h) came to 36.8%. Besides, the inhibition at 300 µM in series [4] (U87, 48 h) stood at 4.1%.

Take `CN1C(=O)c2ccccc2C(=O)N(C)c2ccccc21` [Compound 3l, 5,12-dimethyl-5,12-dihydrodibenzo[b,f][1,4]diazocine-6,11-dione]: the melting point was 265 to 266 °C. Further, the inhibition at 300 µM in series [1] (EUFA30, 24 h) was 38.1%. For the same molecule, the inhibition at 300 µM in series [1] (EUFA30, 48 h) stood at 19.5%. In addition, in series [2] (24 h), the inhibition at 300 µM was 29.5%. The inhibition at 300 µM in series [2] (48 h) worked out at 2.8%. In addition, the inhibition at 300 µM in series [3] (BICR18, 24 h) came to 22.1%. In addition, the inhibition at 300 µM in series [4] (U87, 24 h) was found to be 39%.

In general, IC50 refers to the point on the concentration scale where inhibition reaches its midpoint. For the molecule `O=C1Nc2ccccc2N(Cc2ccccc2)C(=O)c2ccccc21` [Compound 3j, 5-benzyl-5,12-dihydrodibenzo[b,f][1,4]diazocine-6,11-dione], the melting point fell in the range of 205 to 206 °C. Further, the inhibition at 300 µM in series [1] (EUFA30, 24 h) amounted to 33.2%. Besides, in series [1] (EUFA30, 48 h), the inhibition at 300 µM is 32.6%. Besides, in series [2] (24 h), the inhibition at 300 µM was found to be 34.3%. For the same molecule, the inhibition at 300 µM in series [2] (48 h) came to 3.3%. For the same molecule, the inhibition at 300 µM in series [3] (BICR18, 24 h) is 42.2%. Further, the inhibition at 300 µM in series [3] (BICR18, 48 h) came out at 6.1%. Besides, the inhibition at 300 µM in series [4] (U87, 24 h) is 33%. The IC50 in series [5] is more than 300 µM.

As for `O=C1Nc2ccccc2NC(=O)c2ccccc21` [Compound 3a, 5,12-dihydrodibenzo[b,f][1,4]diazocine-6,11-dione], the melting point lay within 286 to 287 °C. In series [1] (EUFA30, 24 h), the inhibition at 300 µM is 21.2%. Moreover, in series [1] (EUFA30, 48 h), the inhibition at 300 µM was determined as 9%. The inhibition at 300 µM in series [2] (24 h) stood at 20.7%. In series [2] (48 h), the inhibition at 300 µM was determined as 1.5%. Moreover, the inhibition at 300 µM in series [3] (BICR18, 24 h) was determined as 7.1%. Besides, in series [4] (U87, 24 h), the inhibition at 300 µM worked out at 17.6%.

`CN1C(=O)c2cscc2C(=O)Nc2ccccc21` [Compound 3i, 5-methyl-5,10-dihydrobenzo[b]thieno[3,4-f][1,4]diazocine-4,11-dione] yielded a melting point of 241 to 242 °C. For the same molecule, the inhibition at 300 µM in series [1] (EUFA30, 24 h) worked out at 29.4%. Moreover, the inhibition at 300 µM in series [1] (EUFA30, 48 h) turned out to be 1.5%. In addition, in series [2] (24 h), the inhibition at 300 µM stood at 14.8%. Besides, the inhibition at 300 µM in series [2] (48 h) amounted to 1.6%. Besides, the inhibition at 300 µM in series [3] (BICR18, 24 h) came to 24%. For the same molecule, in series [4] (U87, 24 h), the inhibition at 300 µM is 36.6%. The inhibition at 300 µM in series [4] (U87, 48 h) amounted to 2.8%.

Turning to `O=C(c1ccccc1)c1ccc2c(c1)NC(=O)c1ccccc1C(=O)N2` [Compound 3c, 2-benzoyl-5,12-dihydrodibenzo[b,f][1, 4]diazocine-6,11-dione], the melting point lay within 156 to 157 °C. Also, the inhibition at 300 µM in series [1] (EUFA30, 24 h) is 28.8%. Also, the inhibition at 300 µM in series [2] (24 h) was determined as 14.5%. Also, the inhibition at 300 µM in series [3] (BICR18, 24 h) worked out at 10%. Besides, the inhibition at 300 µM in series [4] (U87, 24 h) turned out to be 15%.

Consider `Nc1ccccc1N1C(=O)c2ccccc2C1=O` [Compound 10, 2-(2-aminophenyl)isoindoline-1,3-dione], for which the melting point was 195 to 196 °C. Also, the inhibition at 300 µM in series [1] (EUFA30, 24 h) is 25.6%. Also, the inhibition at 300 µM in series [2] (24 h) was determined as 4.9%. Moreover, the inhibition at 300 µM in series [3] (BICR18, 24 h) is 11.4%. In addition, the inhibition at 300 µM in series [4] (U87, 24 h) turned out to be 22.9%.

As for `CC[C@@]1(O)C(=O)OCc2c1cc1n(c2=O)Cc2cc3ccccc3nc2-1` [camptothecin, reference compound], in the series on EUFA30 cells, the “dead cell fraction: early apoptosis” value amounted to 4.1%, the “dead cell fraction: late apoptosis” value worked out at 6.8% and the “dead cell fraction: necrosis” value was 18.7%. Moreover, the necrotic cells with HeLa cells amounted to 31.2%.

Turning to `O=C1Nc2ccccc2NC(=O)c2cc([N+](=O)[O-])ccc21` [Compound 3d, 8-nitro-5,12-dihydrodibenzo[b,f][1,4]diazocine-6,11-dione], the melting point was in the range of 243 to 244 °C. For the same molecule, in series [1] (EUFA30, 24 h), the inhibition at 300 µM worked out at 9.2%. In addition, the inhibition at 300 µM in series [1] (EUFA30, 48 h) was 4.2%. For the same molecule, the inhibition at 300 µM in series [2] (24 h) is 23.4%. Also, the inhibition at 300 µM in series [2] (48 h) was 3.9%. Moreover, the inhibition at 300 µM in series [3] (BICR18, 24 h) is 25.1%. In series [3] (BICR18, 48 h), the inhibition at 300 µM turned out to be 2.5%. In addition, in series [4] (U87, 24 h), the inhibition at 300 µM came to 27.5%.

Regarding `O=C1Nc2ccc([N+](=O)[O-])cc2NC(=O)c2ccccc21` [Compound 3b, 2-nitro-5,12-dihydrodibenzo[b,f][1,4]diazocine-6,11-dione], the melting point was 230 °C (dec.). The inhibition at 300 µM in series [1] (EUFA30, 24 h) is 31%. Besides, the inhibition at 300 µM in series [1] (EUFA30, 48 h) is 18.6%. In addition, the inhibition at 300 µM in series [2] (24 h) came to 33.2%. In addition, the inhibition at 300 µM in series [2] (48 h) came out at 4.7%. Further, in series [3] (BICR18, 24 h), the inhibition at 300 µM stood at 2.2%. Also, the inhibition at 300 µM in series [4] (U87, 24 h) was determined as 10.4%.

The molecule `CN1C(=O)c2ccccc2C(=O)Nc2ccccc21` [Compound 3e, 5-methyl-5,12-dihydrodibenzo[b,f][1,4]diazocine-6,11-dione] yielded a melting point of 206 to 207 °C. Further, the inhibition at 300 µM in series [1] (EUFA30, 24 h) stood at 31.6%. Moreover, the inhibition at 300 µM in series [1] (EUFA30, 48 h) was found to be 17.5%. Besides, the inhibition at 300 µM in series [2] (24 h) is 19.8%. The inhibition at 300 µM in series [2] (48 h) was found to be 5.7%. Further, in series [3] (BICR18, 24 h), the inhibition at 300 µM came out at 22.7%. In addition, in series [4] (U87, 24 h), the inhibition at 300 µM came out at 34.1%.

In turn, `O=C1CCC(=O)Nc2ccccc2N1` [Compound 6, 1,3,4,6-tetrahydrobenzo[b][1,4]diazocine-2,5-dione] yielded a melting point of 244 to 245 °C. Besides, in series [1] (EUFA30, 24 h), the inhibition at 300 µM worked out at 29.4%. The inhibition at 300 µM in series [1] (EUFA30, 48 h) turned out to be 14%. Also, in series [2] (24 h), the inhibition at 300 µM was 21.5%. Moreover, the inhibition at 300 µM in series [2] (48 h) stood at 4.3%. The inhibition at 300 µM in series [3] (BICR18, 24 h) was 11.3%. Moreover, the inhibition at 300 µM in series [4] (U87, 24 h) stood at 19.6%.
